{"source": "patent US20260151358A1", "about": "“METHODS OF TREATING, AMELIORATING, AND/OR PREVENTING STRESS-RELATED DISORDER” (Yale University, priority 2022, published 2026)", "key": {"[1]": {"tested_on": "dlPFC function", "settings": "published data, Li et al. 1994; cited from earlier work"}, "[2]": {"tested_on": "dlPFC Delay cells", "experiment": "Single unit recording with iontophoresis of dlPFC Delay cells in monkeys performing the ODR working memory task", "type": "in vivo, rhesus macaques", "settings": "for PFC neuronal firing (Delay cell firing): FIGS. 9A-9B, monkeys performing a working memory task; for delay-related firing for nonpreferred directions / delay-related firing of dlPFC Delay cells for the neurons' preferred direction / d′ measure of spatial tuning: iontophoresis, vs control, ODR task; for effect on the S-Bay (LTCC agonist)-induced reduction of Delay cell firing: pretreatment", "text": "The physiological contributions of LTCC and β1-AR signaling were examined at the cellular level in rhesus macaques performing the oculomotor delayed response (ODR) spatial working memory task (FIG. 4A) to determine how they influence the neuronal firing needed for working memory and higher cognition. Recordings were made from the caudal principal sulcus (FIG. 4B) using an iontophoretic electrode (FIG. 4C) that allows minute ejection of charged compounds onto the neuron being recorded. The dlPFC contains “Delay cells” that are able to fire across the length of the delay period while the subject is remembering a location (FIG. 4D); this persistent firing is spatially tuned for the neuron's preferred direction, thus representing visual space in working memory. The effects of β1-AR-Cav1.2 signaling on dlPFC “Delay cell” firing were tested using single unit recordings coupled with iontophoresis in adult and aged rhesus monkeys performing the ODR task using repeated measures analyses. Aged monkeys have naturally-occurring calcium dysregulation, and thus are particularly useful for examining agents that reduce calcium signaling. As there are no compounds selective for Cav1.2, these experiments used agents targeting all LTCCs (i.e. Cav1.2 and Cav1.3 in dlPFC)."}, "[3]": {"tested_on": "rhesus monkeys", "experiment": "Stress-induced (FG7142) working memory deficits, spatial delayed response task, systemic administration", "type": "in vivo", "settings": "for stress-induced working memory (cognitive) deficits: pretreatment, FG7142-treated animals, delayed response task; for effect of the selected dose alone on working memory performance: without stressor; for stress-induced cognitive deficits: monkeys", "text": "The final experiments examined whether systemic administration of compounds that block β1-AR or LTCCs prevent stress-induced working memory deficits in rhesus monkeys (n=6), as predicted by the physiological data. This experiment used the LTCC blocker, nimodipine, which normalizes dlPFC working memory in human subjects carrying the CACNA1C allele that increases channel expression. The current experiments tested the effects of β1-AR or LTCC blockade on stress-induced working memory deficits in adult monkeys performing the spatial delayed response task in a Wisconsin General Test Apparatus. The anxiogenic inverse benzodiazepine agonist, FG7142, was used as a pharmacological stressor, as it produces a classic stress response including cortisol release in humans and monkeys, yet allows precise dosing to produce a mild response that impairs accuracy without impeding motivation for testing for food rewards. […]; post-hoc comparisons: vehicle+vehicle vs. vehicle+stress, p=0.001; […]; post-hoc comparisons: vehicle+vehicle vs. vehicle+stress, p=0.0009; vehicle+stress vs. nimodipine+stress, p=0.0006)."}, "[4]": {"tested_on": "test animals", "experiment": "Working memory (cognition) after β1-AR or β2-AR blockade (FIG. 11)", "type": "in vivo"}, "[5]": {"molecular_target": "β3-adrenergic receptor subtype (β3-AR) (Homo sapiens, UniProt P13945)", "sequence (P13945 whole entry)": "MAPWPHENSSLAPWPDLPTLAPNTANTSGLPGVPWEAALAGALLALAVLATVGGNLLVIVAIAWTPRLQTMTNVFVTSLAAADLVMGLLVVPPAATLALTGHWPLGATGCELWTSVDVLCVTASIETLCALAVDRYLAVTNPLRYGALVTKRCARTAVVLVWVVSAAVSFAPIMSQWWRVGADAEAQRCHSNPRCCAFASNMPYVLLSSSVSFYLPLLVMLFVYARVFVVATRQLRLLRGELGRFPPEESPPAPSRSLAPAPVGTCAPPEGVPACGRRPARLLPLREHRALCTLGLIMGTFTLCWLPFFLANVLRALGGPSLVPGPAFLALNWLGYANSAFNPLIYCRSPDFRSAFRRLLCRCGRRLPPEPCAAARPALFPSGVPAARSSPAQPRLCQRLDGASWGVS", "settings": "cited from earlier work"}}, "note": "“Also recorded” adds a separate entry of the source."}
{"smiles": "CC(C)NCC(O)COc1cccc2ccccc12", "note": "(racemic) [propranolol, (RS)-1-(1-methylethylamino)-3-(1-naphthyloxy)propan-2-ol]", "values": [{"measurement": "effect on dlPFC function", "setting": "[1]", "result": "little effect"}]}
{"smiles": "O=C(NCCNCC(O)COc1ccc(O)cc1)N1CCOCC1", "note": "(racemic) [xamoterol, (RS)—N-(2-{[2-hydroxy-3-(4-hydroxyphenoxy)propyl]amino}ethyl)morpholine-4-carboxamide]", "values": [{"measurement": "PFC neuronal firing (Delay cell firing)", "setting": "[2]", "result": "reduces PFC neuronal firing"}, {"measurement": "delay-related firing for nonpreferred directions", "setting": "[2]", "result": "not for nonpreferred directions"}, {"measurement": "delay-related firing of dlPFC Delay cells for the neurons' preferred direction", "setting": "[2]", "result": "reduced delay-related firing"}, {"measurement": "d′ measure of spatial tuning", "setting": "[2]", "result": "significant reduction"}]}
{"smiles": "CC[C@H](NC(C)C)[C@H](O)c1ccc(O)c2[nH]c(=O)ccc12", "note": "(relative stereo) [procaterol, (±)-(1R,2S)-rel-8-hydroxy-5-[1-hydroxy-2-(isopropylamino)butyl]-quinolin-2 (1H)-one]", "values": [{"measurement": "PFC neuronal firing (Delay cell firing)", "setting": "[2]", "result": "increases delay cell firing"}]}
{"smiles": "COC(=O)C1=C(C)NC(C)=C([N+](=O)[O-])[C@H]1c1ccccc1C(F)(F)F", "note": "[(S)-(−)-Bay-K 8644, (−)-methyl 2,6-dimethyl-5-nitro-4 (S)-[2-(trifluoromethyl)phenyl]-1,4-dihydropyridine-3-carboxylate]", "values": [{"measurement": "delay-related firing of dlPFC Delay cells for the neurons' preferred direction", "setting": "[2]", "result": "reduced delay-related firing"}, {"measurement": "d′ measure of spatial tuning", "setting": "[2]", "result": "decreased"}]}
{"smiles": "CNC(=O)c1cc2c(cn1)[nH]c1ccccc12", "note": "[FG7142]", "values": [{"measurement": "working memory performance compared to vehicle+vehicle control", "setting": "[3]; vehicle pretreatment + pharmacological stressor, n=6", "result": "significantly impaired performance"}]}
{"smiles": "Cc1ccc(OCC(O)C(C)NC(C)C)c2c1CCC2", "note": "(centres unmarked) [IC1118551, 3-(isopropylamino)-1-[(7-methyl-4-indanyl)oxy]butan-2-ol]", "values": [{"measurement": "cognition (working memory)", "setting": "[4]; 0.1 mg/kg, FIG. 11, n=1", "result": "impaired cognition"}]}
{"smiles": "c1ccc2c(c1)CCC[C@H]2Nc1nc2ccccc2[nH]1", "note": "[NS8593, N-[(1R)-1,2,3,4-tetrahydro-1-naphthalenyl]-1H-benzimidazol-2-amine]", "values": [{"measurement": "delay-related firing for nonpreferred directions", "setting": "[2]", "result": "smaller increase"}, {"measurement": "delay-related firing of dlPFC Delay cells for the neurons' preferred direction", "setting": "[2]", "result": "significantly increased delay firing"}, {"measurement": "d′ measure of spatial tuning", "setting": "[2]", "result": "significant increase"}, {"measurement": "effect on the S-Bay (LTCC agonist)-induced reduction of Delay cell firing", "setting": "[2]", "result": "blocked"}]}
{"smiles": "CCN(c1ccccc1)c1cc(NC)[n+](C)c(C)n1", "note": "[ZD7288, N-ethyl-1,6-dihydro-1,2-dimethyl-6-(methylimino)-N-phenyl-4-pyrimidinamine]", "values": [{"measurement": "effect on the S-Bay (LTCC agonist)-induced reduction of Delay cell firing", "setting": "[2]", "result": "blocked"}]}
{"smiles": "CC(C)NCC(O)COc1ccc(CCOCC2CC2)cc1", "note": "(centres unmarked) [betaxolol, 1-{4-[2-(cyclopropylmethoxy)ethyl]phenoxy}-3-(propan-2-ylamino)propan-2-ol]", "values": [{"measurement": "pKD value for β3-AR", "setting": "[5]", "result": "5.97±0.08"}, {"measurement": "stress-induced working memory (cognitive) deficits", "setting": "[3]", "result": "prevented working memory deficits; also recorded: blocked stress-induced cognitive deficits"}, {"measurement": "effect of the selected dose alone on working memory performance", "setting": "[3]", "result": "no effect on their own"}, {"measurement": "delay-related firing of dlPFC Delay cells for the neurons' preferred direction", "setting": "[2]", "result": "enhanced delay-related firing"}, {"measurement": "d′ measure of spatial tuning", "setting": "[2]", "result": "increased"}]}
{"smiles": "OC(CNCC(O)C1CCc2cc(F)ccc2O1)C1CCc2cc(F)ccc2O1", "note": "(centres unmarked) [nebivolol, 1-(6-fluoro-3,4-dihydro-2H-chromen-2-yl)-2-[[2-(6-fluoro-3,4-dihydro-2H-chromen-2-yl)-2-hydroxyethyl]amino]ethanol]", "values": [{"measurement": "stress-induced cognitive deficits", "setting": "[3]; 0.01 mg/kg, FIG. 10B", "result": "blocked stress-induced cognitive deficits"}, {"measurement": "stress-induced cognitive deficits", "setting": "[3]; 0.1 mg/kg, FIG. 10A", "result": "blocked stress-induced cognitive deficits"}, {"measurement": "stress-induced working memory (cognitive) deficits", "setting": "[3]", "result": "prevented stress-induced cognitive deficits"}, {"measurement": "cognition (working memory)", "setting": "[4]; 1.0 mg/kg, FIG. 11", "result": "improved cognition"}]}
{"smiles": "COCCOC(=O)C1=C(C)NC(C)=C(C(=O)OC(C)C)C1c1cccc([N+](=O)[O-])c1", "note": "(centres unmarked) [nimodipine, 3-(2-methoxyethyl) 5-propan-2-yl 2,6-dimethyl-4-(3-nitrophenyl)-1,4-dihydropyridine-3,5-dicarboxylate]", "values": [{"measurement": "stress-induced working memory (cognitive) deficits", "setting": "[3]", "result": "prevented working memory deficits"}, {"measurement": "effect of the selected dose alone on working memory performance", "setting": "[3]", "result": "no effect on their own"}]}
